# Target: T1, human neutrophil elastase (HNE) (Homo sapiens, UniProt P08246)
# T1 construct: purchased Sigma E8140
# T1 sequence (P08246 30-267): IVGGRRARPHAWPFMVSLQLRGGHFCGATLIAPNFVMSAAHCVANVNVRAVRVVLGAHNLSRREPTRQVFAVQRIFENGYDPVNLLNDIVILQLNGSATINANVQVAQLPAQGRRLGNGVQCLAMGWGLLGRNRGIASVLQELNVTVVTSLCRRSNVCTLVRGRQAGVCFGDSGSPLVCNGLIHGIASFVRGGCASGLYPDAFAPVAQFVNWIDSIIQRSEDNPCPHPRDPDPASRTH
# Assay: HNE enzyme assay (fluorogenic peptide substrate MeOSuc-Ala-Ala-Pro-Val-AMC)
# Format: biochemical
# Conditions: human leukocyte elastase, substrate 100 μM, 25° C., 30 minutes, at least two separate experiments; read-out: HNE inhibition (IC50 values)
# Experimental: Compounds of this invention were tested for potency in a human neutrophil elastase (HNE) enzyme activity assay.
# Assays were performed in 96-well plates in a total assay volume of 100 μl. The final concentration of elastase enzyme (human leukocyte elastase, Sigma E8140) was 0.0036 units/well […]. The peptide substrate (MeOSuc-Ala-Ala-Pro-Val-AMC, Calbiochem #324740) was used at a final concentration of 100 μM. The final concentration of DMSO was 1% in the assay buffer (0.05M Tris.HCl, 0.1M NaCl, 0.1M CaCl2, 0.0005% brij-35, pH 7.5). The enzymatic reaction was started by addition of the enzyme and incubated at 25° C. for 30 minutes. After incubation, the reaction was stopped by addition of soybean trypsin inhibitor (Sigma T9003) at a final concentration of 50 μg/well. Fluorescence was measured using a Molecular Devices fluorescence plate reader using 380 nm excitation and 460 nm emission wavelengths.
# A dose response to each compound was performed, and the effect of the compound in each experiment was expressed as a percentage inhibition of the control enzyme fluorescence. Dose response curves were plotted and compound potency (IC50) was determined. Compounds were tested in at least two separate experiments.
row,IC50,Structure (SMILES)
1,< 20 nM,"COC(=O)C1=C(C)N(c2cccc(C(F)(F)F)c2)c2nn(CCCS(C)(=O)=O)c(=O)n2[C@@H]1c1ccc(C#N)cc1 [Example 18, (R)-5-(4-Cyano-phenyl)-2-(3-methanesulfonyl-propyl)-7-methyl-3-oxo-8-(3-trifluoromethyl-phenyl)-2,3,5,8-tetrahydro-[1,2,4]triazolo[4,3-a]pyrimidine-6-carboxylic acid methyl ester]"
2,< 20 nM,"COC(=O)C1=C(C)N(c2cccc(C(F)(F)F)c2)c2nn(CC(=O)N(C)CCCCCN(C)C)c(=O)n2[C@@H]1c1ccc(C#N)cc1 [Example 33, (R)-5-(4-Cyano-phenyl)-2-{[(5-dimethylamino-pentyl)-methyl-carbamoyl]-methyl}-7-methyl-3-oxo-8-(3-trifluoromethyl-phenyl)-2,3,5,8-tetrahydro-[1,2,4]triazolo[4,3-a]pyrimidine-6-carboxylic acid methyl ester]"
3,< 20 nM,"COC(=O)C1=C(C)N(c2cccc(C(F)(F)F)c2)c2nn(CCCS(C)(=O)=O)c(=O)n2C1c1ccc(C#N)cc1 (stereo not drawn) [Example 16, 5-(4-Cyano-phenyl)-2-(3-methanesulfonyl-propyl)-7-methyl-3-oxo-8-(3-trifluoromethyl-phenyl)-2,3,5,8-tetrahydro-[1,2,4]triazolo[4,3-a]pyrimidine-6-carboxylic acid methyl ester]"
4,< 20 nM,"COC(=O)C1=C(C)N(c2cccc(C(F)(F)F)c2)c2nn(CCc3ccc(S(C)(=O)=O)cc3)c(=O)n2[C@@H]1c1ccc(C#N)cc1 [Example 20, (R)-5-(4-Cyano-phenyl)-2-[2-(4-methanesulfonyl-phenyl)-ethyl]-7-methyl-3-oxo-8-(3-trifluoromethyl-phenyl)-2,3,5,8-tetrahydro-[1,2,4]triazolo[4,3-a]pyrimidine-6-carboxylic acid methyl ester]"
5,< 20 nM,"COC(=O)C1=C(C)N(c2cccc(C(F)(F)F)c2)c2n[nH]c(=O)n2C1c1ccc(C#N)cc1S(C)(=O)=O (stereo not drawn) [Example 13, 5-(4-Cyano-2-methanesulfonyl-phenyl)-7-methyl-3-oxo-8-(3-trifluoromethyl-phenyl)-2,3,5,8-tetrahydro-[1,2,4]triazolo[4,3-a]pyrimidine-6-carboxylic acid methyl ester]"

# Continued, compound first:
row,Structure (SMILES),IC50
1,"CC1=C(C#N)C(c2ccc(C#N)cc2)n2c(nn(CCCS(=O)(=O)CCC[N+](C)(C)C)c2=O)N1c1cccc(C(F)(F)F)c1 (stereo not drawn) [Example 39, (3-{3-[6-Cyano-5-(4-cyano-phenyl)-7-methyl-3-oxo-8-(3-trifluoromethyl-phenyl)-5,8-dihydro-[1,2,4]triazolo[4,3-a]pyrimidin-2-yl]-propane-1-sulfonyl}-propyl)-trimethylammonium toluene-4-sulfonate]",< 20 nM
2,"CC1=C(C(=O)OCCN(C)C)C(c2ccc(C#N)cc2)n2c(n[nH]c2=O)N1c1cccc(C(F)(F)F)c1 (stereo not drawn) [Example 10, 5-(4-Cyano-phenyl)-7-methyl-3-oxo-8-(3-trifluoromethyl-phenyl)-2,3,5,8-tetrahydro-[1,2,4]triazolo[4,3-a]pyrimidine-6-carboxylic acid 2-dimethylamino-ethyl ester]",< 20 nM
3,"COC(=O)C1=C(C)N(c2cccc(C(F)(F)F)c2)c2nn(Cc3ccccc3)c(=O)n2C1c1ccc(C#N)cc1 (stereo not drawn) [Example 4, 2-Benzyl-5-(4-cyanophenyl)-7-methyl-3-oxo-8-(3-trifluoromethyl-phenyl)-2,3,5,8-tetrahydro-[1,2,4]triazolo[4,3-a]pyrimidine-6-carboxylic acid methyl ester]",20 to 100 nM
4,"COC(=O)C1=C(C)N(c2cccc(C(F)(F)F)c2)c2nn(CC(=O)N(C)CCCCN(C)C)c(=O)n2C1c1ccc(C#N)cc1 (stereo not drawn) [Example 29, 5-(4-Cyano-phenyl)-2-{[(4-dimethylamino-butyl)-methyl-carbamoyl]-methyl}-7-methyl-3-oxo-8-(3-trifluoromethyl-phenyl)-2,3,5,8-tetrahydro-[1,2,4]triazolo[4,3-a]pyrimidine-6-carboxylic acid methyl ester]",< 20 nM

# Reference: patent publication US9023855B2, “Compounds” (Chiesi Farmaceutici S.p.A., priority 2011, dated 2015)
